Reference: US20120270928A1, “MICRORNA COMPOUNDS AND METHODS FOR MODULATING MIR-21 ACTIVITY” (REGULUS THERAPEUTICS INC., priority 2011, published 2012)
Values joined by “and” are separate entries in the source; they are usually repeats but may differ in a detail not shown here. Identical values can stand only once.

How the values were obtained:
[1] = tested on: UUO model of kidney fibrosis; assay: Unilateral ureteral obstruction (UUO) model of kidney fibrosis: kidney collagen 1A1 and collagen 3A1 expression by real-time PCR; format: in vivo, mice; conditions: UUO
Method: Unilateral ureteral obstruction (UUO) is a well-established experimental model of renal injury leading to interstitial fibrosis, and thus is used as an experimental model that is reflective of human kidney disease. UUO is induced by surgically ligating a single ureter. As fibrosis is characterized by an increase in collagen, the presence and extent of kidney fibrosis may be determined by measuring collagen content. Both collagen 1A1 (Col 1A1) and collagen 3A1 (Col 3A1) are measured to assess collagen content. Kidney fibrosis may be visualized by staining tissue samples with picro-sirius red to detect increases in collagen content. Kidney fibrosis may also be observed by measuring the amount of hydroxyproline, which is a major component of collagen, in a sample.
The cEt-containing anti-miR-21 compounds found to be active in the luciferase assay were tested in the UUO model of kidney fibrosis. 25919 comprising 2′-MOE and 2′-fluoro modifications is known to inhibit miR-21 activity in vivo and was included as a positive control. Groups of 8 animals each were treated as follows: UUO only, UUO with PBS, or UUO with anti-miR-21 compound. Relative to the day of the UUO procedure, PBS or anti-miR-21 compound was administered at days −3, −1, and +5. Anti-miR-21 compounds were administered at a dose of 20 mg/kg. As the anti-miR compounds were administered prior to the UUO procedure, this dosing regimen is considered a prophylactic treatment. At day 11, animals were sacrificed and kidney was isolated for measurement of collagen expression. Collagen expression was measured by real-time PCR and normalized first to GAPDH and then to the sham control animals.
The UUO study was repeated to confirm the activity of 25070. The anti-miR was administered subcutaneously at a dose of 20 mg/kg.
(§1) Control treatment groups included UUO only (sham) and UUO with PBS administered subcutaneously. An additional control group included UUO with Tween-MC/20 carrier perorally. 25070 administered subcutaneously at dose of 20 mg/kg at 5 days prior to, 2 days prior to, and 3 days after, the UUO procedure. Irbesartan was administered perorally on daily on days 0 through 7 following the UUO procedure. Animals were sacrificed on Day 10 following the UUO procedure. Kidney tissue was collected for measurement of collagen 1A1 and collagen 3A1 expression.
Compounds 25220 and 25221, as well as 25923, were tested in the UUO model for their effects on fibrosis. Groups of 8 animals each were treated as follows: sham surgery, UUO with PBS, UUO with 25220, UUO with 25221, or UUO with 25923. Relative to the day of the UUO procedure, PBS or anti-miR-21 compound was administered at days −5, −3, and +3. Anti-miR-21 compounds were administered at a dose of 20 mg/kg. As the anti-miR compounds were administered prior to the UUO procedure, this dosing regimen is considered a prophylactic treatment. At day 10, animals were sacrificed and kidney was isolated for measurement of collagen expression. Collagen expression was measured by real-time PCR and normalized to GAPDH.

miR-21 = miR-21 luciferase sensor assay in Hela cells; format: cell-based
Method: The compounds were assessed for miR-21 inhibitory activity in a luciferase assay. A microRNA luciferase sensor construct was engineered using pGL3-MCS2 (Promega). The construct was introduced into Hela cells to test the ability of anti-miR compounds to inhibit activity of miR-21. In this assay, miR-21 present in the Hela cells binds to its cognate site(s) in the luciferase sensor construct, and suppresses luciferase expression. When the appropriate anti-miR is introduced into the cells, it binds to miR-21 and relieves suppression of luciferase expression. Thus, in this assay anti-miRs that are effective inhibitors of miR-21 expression will cause an increase in luciferase expression.
Hela cells (ATCC), stably transfected with a luciferase construct engineered to contain a sequence complementary of miR-21, were seeded in T-170 flasks (BD Falcon) at 3.5*10^6 cells/flask. Hela cells were grown in Dulbecco's Modified Eagle Medium with High Glucose (Invitrogen).
Each flask of Hela cells was transfected with 0.5 ug of a phRL sensor plasmid (Promega) expressing Renilla to be used in normalization. Hela cells were transfected using 20 ul Lipofectamine 2000/flask (Invitrogen). After 4 hours of transfection, cells were washed with PBS and trypsinized Hela cells were plated at 40 k/well in 24 well plates (BD Falcon) and left overnight.
Hela cells were transfected with anti-miRs using Lipofectin (Invitrogen) at 2.5 ul Lipofectin/100 nM ASO/ml Opti-MEM I Reduced Serum Medium (Invitrogen) for 4 hours. After ASO transfection, Hela cells were refed with Dulbecco's Modified Eagle Medium with High Glucose (Invitrogen).
Hela cells are passively lysed and luciferase activity measured using the Dual-Luciferase Reporter Assay System (Promega).
The luciferase assay was performed to test the ability of anti-miRs with the nucleoside patterns described herein to inhibit the activity of miR-21. Results were compared to a ‘mock’ treatment, in which cells received no anti-miR treatment. The experiment was repeated and results of two experimental replicates are shown in the following Table B, as the luciferase value normalized to beta-galactosidase activity.
The luciferase assay was performed as described herein to test the ability of anti-miRs in Table F to inhibit the activity of miR-21. Results were compared to a ‘mock’ treatment, in which cells received no anti-miR treatment. The experiment was repeated and results of two experimental replicates are shown in the following Table D, as fold change in luciferase value relative to the mock treatment.

[2] = tested on: ischemia reperfusion injury/nephrectomy (IR/Nx) model; assay: Ischemia reperfusion injury/nephrectomy (IR/Nx) model: urinary albumin to creatinine ratio; format: in vivo, mouse
From the text: An ischemia reperfusion injury/nephrectomy (IR/Nx) model is created in the mouse through temporary unilateral clamping of an artery in one kidney, which leads to tubule damage, inflammation, and fibrosis, followed by removal of the second kidney at a later timepoint. In this model, the acute kidney dysfunction phase is useful to test candidate agents for the treatment of acute kidney injury (i.e. up to about the first 5 days), and the later phases of kidney dysfunction are useful to model chronic fibrosis (i.e. after about the first 5 days).
Unilateral IR was induced for a period of 30 minutes. Treatment groups were as follows: sham IR procedure; IR with PBS administered subcutaneously; IR with mismatched control 25109 administered subcutaneously at a dose of 20 mg/kg; IR with anti-miR-21 compound 25070 administered subcutaneously at a dose of 20 mg/kg; and IR with anti-miR-21 compound 25923 administered subcutaneously at a dose of 20 mg/kg. PBS or anti-miR was administered on days 2, 3, 4, and 8 following IR. On day 8, the healthy kidney was removed by nephrectomy from each animal, and animals were sacrificed on day 9. Just prior to sacrifice, urine was collected by direct bladder puncture.
Urinary albumin to creatinine ratio was measured in the urine from each mouse. […] The geometric mean of the albumin to creatinine ratio in each group of mice was 16 μgAlb/mgCr (nephrectomy-only control), 127 μgAlb/mgCr (IR/Nx, PBS control), 140 μgAlb/mgCr (IR/Nx, 25109 control), 40 μgAlb/mgCr (IR/Nx, 25070), and 31 μgAlb/mgCr (IR/Nx, 25923). Blood urea nitrogen and serum creatinine levels were similar across all IR/Nx mice, and were elevated relative to nephrectomy-only control mice (data not shown).

[3] = tested on: UUO model of kidney fibrosis; assay: UUO model: collagen area fraction of kidney tissue (picrosirius red histology); format: in vivo, mice; conditions: Table N, 25070 20 mg/kg s.c.
Method: as §1
The ‘collagen area fraction’ is measured histologically through quantitative image processing of the area of kidney tissue that is stained red by the picrosirius red stain; the percent detected as red is normalized by the area of kidney section.

[4] = 20 mg/kg at days -5, -3, +3, kidney at day 10
[5] = Table M, individual animals, 25070 20 mg/kg s.c. 5 and 2 days prior to and 3 days after UUO, irbesartan PO daily days 0-7, sacrifice Day 10, 20 mg/kg

AECSATCSAGTCSTGAUSAAGCSTAS (antisense ACATCAGTCTGATAAGCTA; cEt and 2'-MOE nucleosides, code letters not given here, further chemistry not given here) [Compound 25923, variation of 25070: 3′-terminal nucleoside is a cEt nucleoside rather than 2′-MOE nucleoside]
collagen 1A1 expression (FIG. 2A, in words) [1, 4]: reduced collagen 1A1 and collagen 3A1 expression by a stastically significant amount | collagen 3A1 expression (FIG. 2B, in words) [1, 4]: reduced collagen 1A1 and collagen 3A1 expression by a stastically significant amount | inhibition of miR-21 activity in the luciferase assay (in words) (miR-21; Hela cells): inhibition of miR-21 in a dose-dependent manner | fold change in luciferase value relative to the mock treatment (miR-21; concentration of anti-miR compound 0.2 (unit not given)): 1.06 fold change | fold change in luciferase value relative to the mock treatment (miR-21; concentration of anti-miR compound 0.6 (unit not given)): 1.01 fold change | fold change in luciferase value relative to the mock treatment (miR-21; concentration of anti-miR compound 1.9 (unit not given)): 1.10 fold change | fold change in luciferase value relative to the mock treatment (miR-21; concentration of anti-miR compound 5.6 (unit not given)): 5.18 fold change | fold change in luciferase value relative to the mock treatment (miR-21; concentration of anti-miR compound 16.7 (unit not given)): 11.34 fold change | fold change in luciferase value relative to the mock treatment (miR-21; concentration of anti-miR compound 50.0 (unit not given)): 10.81 fold change | reduction in urinary albumin to creatinine ratio (significance) ([2]; 20 mg/kg subcutaneously on days 2, 3, 4, and 8): statistically significant reductions | geometric mean of the urinary albumin to creatinine ratio ([2]; 20 mg/kg subcutaneously on days 2, 3, 4, and 8, urine on day 9): 31 μgAlb/mgCr

CCCCC1=NC2(CCCC2)C(=O)N1Cc1ccc(-c2ccccc2-c2nnn[nH]2)cc1 [irbesartan, reference compound]
Collagen 3A1 (Normalized Expression) Mean ([1]; Table M, group mean, 25070 20 mg/kg s.c., irbesartan PO daily days 0-7, Day 10, UUO-PBS 93.2, Tween/MC vehicle 132.4): 73.2 | Collagen 1A1 (Normalized Expression) Mean ([1]; Table M, group mean, 25070 20 mg/kg s.c., irbesartan PO daily days 0-7, Day 10, UUO-PBS 129.6, Tween/MC vehicle 150.2): 117.8 | Collagen 1A1 (Normalized Expression) [1, 5]: 125.4 and 86.7 and 106.6 and 110.7 and 198.3 and 92.2 and 118.1 and 104.1 | Collagen 3A1 (Normalized Expression) [1, 5]: 65.5 and 63.8 and 63.2 and 50.8 and 63.6 and 82.8 and 122.5 | reduction in Col3a1 expression (significance) ([1]; comparison with irbesartan, sacrifice Day 10): statistically significant reductions | reduction in Col1A1 expression relative to saline-treated animals (significance) ([1]; comparison with irbesartan, sacrifice Day 10, p<0.05 by one-way ANOVA): did not yield a statistically significant reduction | Collagen Area Fraction (%) Mean ([3]; group mean, irbesartan PO, Day 10, UUO-PBS 11.1, Tween/MC vehicle 8.0): 8.0% | Collagen Area Fraction (%) ([3]; individual animals, irbesartan PO daily days 0-7, Day 10, picrosirius red, 20 mg/kg): 6.105% and 7.481% and 15.877% and 7.914% and 6.614% and 5.706% and 7.798% and 6.154%
